Experimental data reported in patent US20020082420A1, “Bicyclic heterocycles, pharmaceutical compositions containing them, their use, and processes for preparing them” (priority 2000, published 2002).
pIC50: −log10 of the molar value.

Key:
human EGF-R = target: T1, human EGF-R (Homo sapiens, UniProt P00533); test: Inhibition of EGF-dependent proliferation of F/L-HERc cells (Cell Titer 96 assay); assay type: cell-based; conditions: F/L-HERc cells (murine IL-3-dependent line expressing human EGF-R), stimulated with EGF 20 ng/ml, 48 hours at 37° C.
T1 construct: expressed in transfected cells; host or cells: F/L-HERc cells (murine IL-3-dependent FDC-P1 line transduced with an LXSN retroviral vector carrying human EGF-R cDNA; packaging line GP+E86)
Source text: A cell line of murine origin dependent on interleukin-3-(IL-3) which was genetically modified to express functional human EGF-R was used here. The proliferation of these cells known as F/L-HERc can therefore be stimulated either by murine IL-3 or by EGF (cf T. von Ruiden et al., EMBO J. 7, 2749-2756 (1988) and J. H. Pierce et al., Science 239, 628-631 (1988)).
The starting material used for the F/L-HERc cells was the cell line FDC-P1, the production of which has been described by T. M. Dexter et al., J. Exp. Med. 152. 1036-1047 (1980). Alternatively, however, other growth-factor-dependent cells may also be used (cf., e.g., J.H. Pierce et al., Science 239, 628-631 (1988); H. Shibuya et al., Cell 70, 57-67 (1992); and W. S. Alexander et al., EMBO J. 10, 3683-3691 (1991)). For expressing the human EGF-R cDNA (cf A. Ullrich et al., Nature 309, 418-425 (1984)) recombinant retroviruses were used as described by T. von Ruiden et al., EMBO J. 7, 2749-2756 (1988), except that the retroviral vector LXSN (cf A. D. Miller et al., BioTechniques 7, 980-990 (1989)) was used for the expression of the EGF-R cDNA and the line GP+E86 (cf D. Markowitz et al., J. Virol. 62, 1120-1124 (1988)) was used as the packaging cell.
The test was performed as follows:
F/L-HERc cells were cultivated in RPMI/1640 medium (BioWhittaker), supplemented with 10% fetal calf serum (FCS, Boehringer Mannheim), 2 mM glutamine (BioWhittaker), standard antibiotics and 20 ng/ml of human EGF (Promega), at 37° C. and 5% CO2. In order to investigate the inhibitory activity of the compounds according to the invention, 1.5×10^4 cells per well were cultivated in triplicate in 96-well plates in the above medium (200 μl), the cell proliferation being stimulated with either EGF (20 ng/ml) or murine IL-3. The IL-3 used was obtained from culture supernatants of the cell line X63/0 mIL-3 (cf H. Karasuyama et al., Eur. J. Immunol. 18, 97-104 (1988)). The compounds according to the invention were dissolved in 100% dimethylsulfoxide (DMSO) and added to the cultures in various dilutions, the maximum DMSO concentration being 1%. The cultures were incubated for 48 hours at 37° C.
In order to determine the inhibitory activity of the compounds according to the invention the relative cell number was measured in O.D. units using the Cell Titer 96™ Aqueous Non-Radioactive Cell Proliferation Assay (Promega). The relative cell number was calculated as a percentage of the control (F/LHERc cells without inhibitor) and the concentration of active substance which inhibits the proliferation of the cells by 50% (IC50) was derived therefrom.

T1 sequence (P00533 25-1210): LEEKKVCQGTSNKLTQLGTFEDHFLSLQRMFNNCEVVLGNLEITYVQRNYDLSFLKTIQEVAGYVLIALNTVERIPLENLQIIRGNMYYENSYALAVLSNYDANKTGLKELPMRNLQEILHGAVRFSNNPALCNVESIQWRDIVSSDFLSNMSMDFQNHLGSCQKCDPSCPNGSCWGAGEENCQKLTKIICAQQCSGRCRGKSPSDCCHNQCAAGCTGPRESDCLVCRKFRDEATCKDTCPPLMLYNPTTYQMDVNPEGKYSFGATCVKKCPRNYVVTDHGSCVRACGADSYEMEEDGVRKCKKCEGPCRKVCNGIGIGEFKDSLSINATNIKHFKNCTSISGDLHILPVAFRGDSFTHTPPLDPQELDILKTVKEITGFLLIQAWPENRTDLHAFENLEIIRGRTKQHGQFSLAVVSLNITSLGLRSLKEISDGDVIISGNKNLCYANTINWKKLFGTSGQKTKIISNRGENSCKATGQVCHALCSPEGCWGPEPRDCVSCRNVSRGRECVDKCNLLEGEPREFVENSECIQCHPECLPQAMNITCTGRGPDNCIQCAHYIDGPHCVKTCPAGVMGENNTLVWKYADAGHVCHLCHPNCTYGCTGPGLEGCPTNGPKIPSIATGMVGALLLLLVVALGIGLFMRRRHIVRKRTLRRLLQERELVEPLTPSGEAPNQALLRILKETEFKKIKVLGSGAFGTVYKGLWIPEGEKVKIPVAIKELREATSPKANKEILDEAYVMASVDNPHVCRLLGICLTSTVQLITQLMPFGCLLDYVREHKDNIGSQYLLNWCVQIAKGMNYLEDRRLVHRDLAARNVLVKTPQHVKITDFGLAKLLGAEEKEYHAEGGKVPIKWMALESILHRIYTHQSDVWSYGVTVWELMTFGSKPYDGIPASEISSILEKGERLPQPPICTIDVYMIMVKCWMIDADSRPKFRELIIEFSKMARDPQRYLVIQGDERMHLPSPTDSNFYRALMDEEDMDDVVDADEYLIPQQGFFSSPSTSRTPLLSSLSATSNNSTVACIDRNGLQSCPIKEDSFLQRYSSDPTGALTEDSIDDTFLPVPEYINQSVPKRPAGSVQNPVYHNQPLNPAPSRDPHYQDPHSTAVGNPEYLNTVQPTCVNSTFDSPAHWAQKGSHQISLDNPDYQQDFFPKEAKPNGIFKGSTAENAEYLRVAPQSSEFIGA

| SMILES | pIC50 (human EGF-R) | melting point |
| --- | --- | --- |
| CCOC(=O)C1CCN(CCNc2ncc3ncnc(Nc4ccc(F)c(Cl)c4)c3n2)CC1 [2(14), 4-[(3-chloro-4-fluorophenyl)amino]-6-{2-[4-(ethoxycarbonyl)piperidin-1-yl]ethylamino}pyrimido[5,4-d]pyrimidine] | 5.94 | 137 to 139 °C |
| COC(=O)CN(CC(=O)OC)C1CCC(N(C)c2ncc3ncnc(Nc4ccc(F)c(Cl)c4)c3n2)CC1 (stereo not drawn) [3(12), 4-[(3-chloro-4-fluorophenyl)amino]-6-[N-(trans-4-{N,N′-bis[(methoxycarbonyl)methyl]amino}cyclohex-1-yl)-N-methylamino]pyrimido[5,4-d]pyrimidine] | 6.99 | 162 to 164 °C |
| O=C(O)CN1CCN(c2ncc3ncnc(Nc4ccc(F)c(Cl)c4)c3n2)CC1 [Example 1(6), 4-[(3-chloro-4-fluorophenyl)amino]-6-[4-(carboxymethyl)piperazin-1-yl]pyrimido[5,4-d]pyrimidine] | 5.64 | 240 °C (dec.) |
| O=C(O)CN1CCC(Nc2ncc3ncnc(Nc4ccc(F)c(Cl)c4)c3n2)CC1 [Example 1, 4-[(3-chloro-4-fluorophenyl)amino]-6-{ [1-(carboxymethyl)piperidin-4-yl]amino}pyrimido[5.4-d]pyrimidine] | 6.08 | 202 to 205 °C |
| O=C1CN(C2CCC(Nc3ncc4ncnc(Nc5ccc(F)c(Cl)c5)c4n3)CC2)CCO1 (stereo not drawn) [Example 7, 4-[(3-chloro-4-fluorophenyl)amino]-6-{[trans-4-(2-oxomorpholin-4-yl)cvclohex-1-yl]amino}pyrimido[5,4-d]pyrimidine] | 6.91 | 202 to 204 °C |

Now those with a higher pIC50 (human EGF-R), led by results:

| pIC50 (human EGF-R) | melting point | SMILES |
| --- | --- | --- |
| 7.52 | 144 °C | COC(=O)CN1CCC(Nc2ncc3ncnc(Nc4cccc(Br)c4)c3n2)CC1 [2(17)] |
| 7.60 | 129 °C | COC(=O)CN1CCC(Nc2ncc3ncnc(Nc4cccc(Cl)c4)c3n2)CC1 [2(23), 4-[(3-chlorophenyl)amino]-6-({1-[(methoxycarbonyl)methyl]piperidin-4-yl}amino)pyrimido[5,4-d]pyrimidine] |
| 7.14 | 164 °C | COC(=O)CN1CCC(Nc2ncc3ncnc(Nc4cccc(C)c4)c3n2)CC1 [2(24), 4-[(3-methylphenyl)amino]-6-({1-[(methoxycarbonyl)methyl]piperidin-4-yl}amino)pyrimido[5,4-d]pyrimidine] |
| 7.68 | 218 °C | COC(=O)CN1CCC(Nc2ncc3ncnc(Nc4cc(Cl)c(N)c(Cl)c4)c3n2)CC1 [2(26), 4-[(4-amino-3,5-dichlorophenyl)amino]-6-({1-[(methoxycarbonyl)methyl]piperidin-4-yl}amino)pyrimido[5,4-d]pyrimidine] |
| 7.11 | 167 °C | COC(=O)CN1CCC(Nc2ncc3ncnc(Nc4cc(Br)c(N)c(Br)c4)c3n2)CC1 [2(27), 4-[(4-amino-3,5-dibromophenyl)amino]-6-({1-[(methoxycarbonyl)methyl]piperidin-4-yl}amino)pyrimido[5,4-d]pyrimidine] |
| 7.59 | 167 °C | COC(=O)CN1CCC(Nc2ncc3ncnc(Nc4ccc5[nH]ccc5c4)c3n2)CC1 [2(28), 4-[(indol-5-yl)amino]-6-({1-[(methoxycarbonyl)methyl]piperidin-4-yl}amino)pyrimido [5,4-d]pyrimidine] |
